Measurements: US11980616B2, “Treating liver disease by selectively eliminating senescent cells” (Buck Institute for Research on Aging, priority 2014, dated 2024)

Tests used:
[1] = system: senescence markers and SASP factors in senescent IMR90 cells; assay: qPCR of senescence markers and SASP factors in irradiated senescent IMR90 cells; assay type: cell-based, human
Protocol: Primary human fibroblast (IMR90) cells were induced to senesce by applying 10 Gy of irradiation. Seven days after irradiation (Day 0), cells were treated with 10 μM Nutlin-3a or vehicle (DMSO) for nine days (Day 9). The drug or vehicle was refreshed every three days. Drug/vehicle was removed at Day 9 and the cells were cultured for an additional three days (Day 12) in media without drug or DMSO. Cells were then collected, mRNA extracted, and cDNA prepared. Quantitative PCR (qPCR) was then performed to detect expression of various genes. Cells were also collected at Day 12 after drug/vehicle had been removed for three days. The data are presented as an average of three samples. Data were normalized to actin and depicted as a ratio to non-senescent cells.

[2] = system: DNA damage response proteins in senescent IMR90 cells; assay: Immunoblot of DNA damage response proteins in irradiated senescent IMR90 cells; assay type: cell-based, human
Protocol: Primary human fibroblast (IMR90) cells were induced to senesce by applying 10 Gy of irradiation. Seven days after irradiation (Day 0), cells were treated with 10 μM Nutlin-3a or vehicle (DMSO) for nine days (Day 9). The drug or vehicle was refreshed every three days. Drug/vehicle was removed at Day 9 and the cells were cultured for an additional six days in media without drug or DMSO, changing media every three days. Cells were collected at Day 0 (non-senescent cells), Day 9, Day 12, and Day 15, and protein extracted and processed for immunoblotting (Western blotting). Two samples were processed at each time point; the results are provided for one sample in FIG. 14.

LDLR-/- mice fed a HFD = assay: Atherosclerosis model, LDLR-/- mice fed a high fat diet; assay type: in vivo, mouse
Source text: Schematics of two atherosclerosis mouse models are presented in FIGS. 43A-B. The study illustrated in FIG. 43A assessed the extent to which clearance of senescent cells from plaques in LDLR^−/− mice with Nutlin-3A reduces plaque load. Two groups of LDLR^−/− mice (10 weeks) are fed a high fat diet (HFD) (Harlan Teklad TD.88137) having 42% calories from fat, beginning at Week 0 and throughout the study. Two groups of LDLR^−/− mice (10 weeks) are fed normal chow (−HFD). From weeks 0-2, one group of HFD mice and −HFD mice are treated with Nutlin-3A (25 mg/kg, intraperitoneally). One treatment cycle is 14 days treatment, 14 days off. Vehicle is administered to one group of HFD mice and one group of −HFD mice. At week 4 (timepoint 1), one group of mice are sacrificed and to assess presence of senescent cells in the plaques. For the some of the remaining mice, Nutlin-3A and vehicle administration is repeated from weeks 4-6. At week 8 (timepoint 2), the mice are sacrificed and to assess presence of senescent cells in the plaques. The remaining mice are treated with Nutlin-3A or vehicle from weeks 8-10. At week 12 (timepoint 3), the mice are sacrificed and to assess the level of plaque and the number of senescent cells in the plaques.
Plasma lipid levels were measured in LDLR^−/− mice fed a HFD and treated with Nutlin-3A or vehicle at timepoint 1 as compared with mice fed a −HFD (n=3 per group). Plasma was collected mid-afternoon and analyzed for circulating lipids and lipoproteins.
At the end of timepoint 1, LDLR^−/− mice fed a HFD and treated with Nutlin-3A or vehicle were sacrificed (n=3, all groups), and the aortic arches were dissected for RT-PCR analysis of SASP factors and senescent cell markers. Values were normalized to GAPDH and expressed as fold-change versus age-matched, vehicle-treated LDLR^−/− mice on a normal diet.
At the end of timepoint 2, LDLR^−/− mice fed a HFD and treated with Nutlin-3A or vehicle (n=3 for all groups) were sacrificed, and aortic arches were dissected for RT-PCR analysis of SASP factors and senescent cell markers. Values were normalized to GAPDH and expressed as fold-change versus age-matched, vehicle-treated LDLR^−/− mice on a normal diet.
At the end of timepoint 3, LDLR^−/− mice fed a HFD and treated with Nutlin-3A or vehicle (n=3 for all groups) were sacrificed, and aortas were dissected and stained with Sudan IV to detect the presence of lipid. Body composition of the mice was analyzed by MRI, and circulating blood cells were counted by Hemavet. […] As shown in FIGS. 48A-B, the platelet and lymphocyte counts were equivalent between the Nutlin-3A and vehicle treated mice.

[3] = system: LDLR-/-/3MR double transgenic mice; assay: Mature atherosclerotic plaques in LDLR-/-/3MR mice, 100 day treatment period; assay type: in vivo, mouse; conditions: vs LDLR-/- control
Protocol: The impact of clearance of senescent cells on the stability and size of mature atherosclerotic plaques was studied in LDLR^−/−/3MR double transgenic mice. From 10 weeks of age, LDLR^−/−/3MR double transgenic mice (10 weeks) and LDLR^−/− single transgenic mice (control) were fed a high fat diet (Harlan Teklad TD.88137) having 42% calories from fat beginning at Week 0 until Week 12.5, when the mice were switched to normal chow diet. Both groups of mice were treated with ganciclovir from week 12.5 over the next 100 days, with each treatment cycle comprising 5 days of ganciclovir (25 mg/kg intraperitoneally daily) and 14 days off. At the end of the 100 day treatment period, the mice were sacrificed, plasma and tissues were collected, and atherosclerosis was quantitated. Descending aortas were dissected and stained with Sudan IV to visualize the plaque lipids. […] Plaques from ganciclovir-treated LDLR^−/− control and LDLR^−/−/3MR mice (see dashed circled plaques in FIGS. 55A-B, respectively) were harvested and cut into cross-sections and stained with […] the general architecture of the atherosclerotic plaques. “#” indicates fat located on the outside of the aorta (see FIG. 55A). The plaques marked with an “*” and “**” in FIGS. 55A and B, respectively, are shown as stained cross-sections in FIGS. […], respectively. […] The plaque from the control mice has identifiable “lipid pockets” accumulating within. […] Disruption or tear in the cap of a lipid-rich plaque is a trigger for coronary events through exposure of plaque thrombogenic components to platelets and clotting components of the blood. Plaques that grow more rapidly as a result of rapid lipid deposition and have thin fibrin caps are prone to rupture. Slowly growing plaques with mature fibrin caps tend to stabilize and are not prone to rupture. Taken together, these experiments indicate that removal of senescent cells may affect atherosclerotic plaque architecture and have a stabilizing effect.

[4] = 10 μM, drug present and after removal
[5] = Day 12, three days after drug removal
[6] = 10 μM, decreased when the drug was removed

COc1ccc(C2=N[C@@H](c3ccc(Cl)cc3)[C@@H](c3ccc(Cl)cc3)N2C(=O)N2CCNC(=O)C2)c(OC(C)C)c1 [Nutlin-3a]
p21 level relative to non-senescent cells ([1]; 10 μM, Day 9, qPCR normalized to actin): approximately 90 fold | IL-1α level ([1]; 10 μM, Day 9 and Day 12): decreased only after Nutlin-3a had been removed | CXCL-1 level [1, 4]: reduced | IL-6 level [1, 4]: reduced | IL-8 level [1, 4]: reduced | p16 level [1, 5]: decrease | p21 level vs DMSO treated cells [1, 5]: comparable | p16 level ([1]; in the presence of drug (Day 9)): did not change | Phosphorylation of H2AX (γH2AX) ([2]; 10 μM, after treatment and after drug removal): declining levels of phosphorylation | Phosphorylation of the kinase ATM (pATM S1981) ([2]; 10 μM, also after drug removal): lower | Level of MDM2 [2, 6]: elevated | Level of p21 [2, 6]: elevated | Level of p53 [2, 6]: elevated | Level of IkBa ([2]; after drug is removed): approaches the level of IkBa in non-senescent cells | Expression of SASP factors and senescent cell markers in aortic arch (RT-PCR) (LDLR-/- mice fed a HFD; 25 mg/kg i.p., after 1 treatment cycle, MMP3, MMP13, PAI1, p21, IGFBP2, IL-1A, IL-1B): reduced expression of several SASP factors and senescent cell markers | Expression of SASP factors and senescent cell markers in aortic arch (RT-PCR) (LDLR-/- mice fed a HFD; 25 mg/kg i.p., multiple (two) treatment cycles): reduced expression of most markers | Reduction of plaques in the descending aorta (Sudan IV) (LDLR-/- mice fed a HFD; 25 mg/kg i.p., three treatment cycles, week 12): ~45% | Lymphocyte count vs vehicle (LDLR-/- mice fed a HFD; three treatment cycles): equivalent | Platelet count vs vehicle (LDLR-/- mice fed a HFD; three treatment cycles): equivalent

Nc1nc(O)c2ncn(COC(CO)CO)c2n1 [ganciclovir]
Atherosclerotic plaques in descending aorta (Sudan IV staining) ([3]; 25 mg/kg i.p. 5 days on, 14 days off, 100 days): fewer atherosclerotic plaques with less intense staining | % of the aorta covered in plaques (area of Sudan IV staining) ([3]; 100 day treatment): significantly lower | Plaque morphology (cross-sections) ([3]; 100 day treatment): presence of a thick fibrin cap and the absence of lipid pockets
